Assay results: ChEMBL document CHEMBL3745645, “Synthesis, in vitro antitumor activity, dihydrofolate reductase inhibition, DNA intercalation and structure-activity relationship studies of 1,3,5-triazine analogues” (Bioorg Med Chem Lett, 2016)
The source made the active and inactive calls. The rule behind the calls is not given here.

How the values were obtained:
NCI-H522 = test: Cytotoxicity against human NCI-H522 cells at 10 uM after 48 hrs by SRB assay; assay type: functional
[1] = Cytotoxicity against human HOP92 cells at 10 uM after 48 hrs by SRB assay; assay type: functional; conditions: HOP-92, 48 h, read-out: GI
MCF7 [2] = test: Cytotoxicity against human MCF7 cells at 10 uM after 48 hrs by SRB assay; assay type: functional; conditions: MCF7, 48 h, read-out: GI
[3] = Cytotoxicity against human SF268 cells at 10 uM after 48 hrs by SRB assay; assay type: functional; conditions: SF-268, 48 h, read-out: GI
[4] = Cytotoxicity against human DU145 cells at 10 uM after 48 hrs by SRB assay; assay type: functional; conditions: DU-145, 48 h, read-out: GI
MCF7 [5] = test: Cytotoxicity against human MCF7 cells after 48 hrs by SRB assay; assay type: functional; conditions: MCF7, 48 h, pooled result: one value given for 6 cell lines, strains, targets or settings
Calf thymus DNA [6] = test: Binding affinity to calf thymus DNA by fluorescence spectrophotometric analysis; assay type: nucleic-acid assay; conditions: Bos taurus
SN12C = test: Cytotoxicity against human SN12C cells at 10 uM after 48 hrs by SRB assay; assay type: functional
ACHN = test: Cytotoxicity against human ACHN cells at 10 uM after 48 hrs by SRB assay; assay type: functional; conditions: read-out: GI
[7] = Cytotoxicity against human HOP62 cells at 10 uM after 48 hrs by SRB assay; assay type: functional; conditions: HOP-62, 48 h, read-out: GI
[8] = Cytotoxicity against human SF539 cells at 10 uM after 48 hrs by SRB assay; assay type: functional; conditions: SF-539, 48 h, read-out: GI
SK-MEL-5 = test: Cytotoxicity against human SK-MEL-5 cells at 10 uM after 48 hrs by SRB assay; assay type: functional
Malme-3M = test: Cytotoxicity against human MALME-3M cells at 10 uM after 48 hrs by SRB assay; assay type: functional
[9] = Cytotoxicity against human HL-60(TB) cells after 48 hrs by SRB assay; assay type: functional; conditions: HL-60, 48 h, read-out: LC50 (the source's name)
KM12 = test: Cytotoxicity against human KM12 cells at 10 uM after 48 hrs by SRB assay; assay type: functional
[10] = Cytotoxicity against human SF268 cells after 48 hrs by SRB assay; assay type: functional; conditions: SF-268, 48 h, pooled result: one value given for 6 cell lines, strains, targets or settings
[11] = Cytotoxicity against human DU145 cells after 48 hrs by SRB assay; assay type: functional; conditions: DU-145, 48 h, read-out: LC50 (the source's name)
[12] = Cytotoxicity against human MOLT4 cells at 10 uM after 48 hrs by SRB assay; assay type: functional; conditions: MOLT-4, 48 h, read-out: GI
T47D = test: Cytotoxicity against human T47D cells at 10 uM after 48 hrs by SRB assay; assay type: functional
A549 [13] = test: Cytotoxicity against human A549 cells after 48 hrs by SRB assay; assay type: functional; conditions: A549, 48 h, pooled result: one value given for 8 cell lines, strains, targets or settings
[14] = Cytotoxicity against human RPMI8226 cells after 48 hrs by SRB assay; assay type: functional; conditions: RPMI-8226, 48 h, read-out: LC50 (the source's name)
K562 = test: Cytotoxicity against human K562 cells after 48 hrs by SRB assay; assay type: functional; conditions: K562, 48 h
[15] = Cytotoxicity against human HCT116 cells at 10 uM after 48 hrs by SRB assay; assay type: functional; conditions: HCT-116, 48 h, read-out: GI
Dihydrofolate reductase = molecular target: T1, Dihydrofolate reductase (Homo sapiens, UniProt P00374); test: Inhibition of human recombinant DHFR expressed in Escherichia coli by spectrophotometric analysis
T1 sequence (P00374 whole entry): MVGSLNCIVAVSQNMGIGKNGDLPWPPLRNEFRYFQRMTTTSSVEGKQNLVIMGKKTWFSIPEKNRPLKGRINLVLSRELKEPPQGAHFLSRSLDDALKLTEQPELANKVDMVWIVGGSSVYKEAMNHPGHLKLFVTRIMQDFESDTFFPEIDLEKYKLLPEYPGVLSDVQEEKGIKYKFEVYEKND

[16] = Cytotoxicity against human SNB19 cells at 10 uM after 48 hrs by SRB assay; assay type: functional; conditions: SNB-19, 48 h, read-out: GI
[17] = Cytotoxicity against human Hs 578T cells at 10 uM after 48 hrs by SRB assay; assay type: functional; conditions: read-out: GI
[18] = Cytotoxicity against human OVCAR5 cells at 10 uM after 48 hrs by SRB assay; assay type: functional; conditions: OVCAR-5, 48 h, read-out: GI
U-251 = test: Cytotoxicity against human U251 cells at 10 uM after 48 hrs by SRB assay; assay type: functional
CCRF-CEM = test: Cytotoxicity against human CCRF-CEM cells at 10 uM after 48 hrs by SRB assay; assay type: functional
[19] = Cytotoxicity against human SKOV3 cells at 10 uM after 48 hrs by SRB assay; assay type: functional; conditions: SK-OV-3, 48 h, read-out: GI
[20] = Cytotoxicity against human UO31 cells at 10 uM after 48 hrs by SRB assay; assay type: functional; conditions: UO-31, 48 h, read-out: GI
SR [21] = test: Cytotoxicity against human SR cells at 10 uM after 48 hrs by SRB assay; assay type: functional
SK-MEL-2 = test: Cytotoxicity against human SK-MEL-2 cells at 10 uM after 48 hrs by SRB assay; assay type: functional
SR [22] = test: Cytotoxicity against human SR cells after 48 hrs by SRB assay; assay type: functional
NCI-H322M = test: Cytotoxicity against human NCI-H322M cells at 10 uM after 48 hrs by SRB assay; assay type: functional; conditions: read-out: GI
A498 = test: Cytotoxicity against human A498 cells at 10 uM after 48 hrs by SRB assay; assay type: functional
M14 = test: Cytotoxicity against human M14 cells at 10 uM after 48 hrs by SRB assay; assay type: functional
[23] = Cytotoxicity against human MOLT4 cells after 48 hrs by SRB assay; assay type: functional; conditions: MOLT-4, 48 h, read-out: LC50 (the source's name)
786-0 [24] = test: Cytotoxicity against human 786-0 cells at 10 uM after 48 hrs by SRB assay; assay type: functional
Calf thymus DNA [25] = test: Binding affinity to calf thymus DNA by UV-vis spectrometric analysis; assay type: nucleic-acid assay; conditions: Bos taurus
786-0 [26] = test: Cytotoxicity against human 786-0 cells after 48 hrs by SRB assay; assay type: functional; conditions: 786-0, 48 h, pooled result: one value given for 8 cell lines, strains, targets or settings
A549 [27] = test: Cytotoxicity against human A549 cells at 10 uM after 48 hrs by SRB assay; assay type: functional
Calf thymus DNA [28] = test: Binding affinity to calf thymus DNA assessed as melting temperature by spectrophotometric analysis (reference value: 60 degC); assay type: nucleic-acid assay; conditions: Bos taurus

SMILES: Cc1nc2cc(Nc3nc(Nc4ccc(F)cc4)nc(-c4ccc(Cl)cc4)n3)ccc2n1Cc1ccccc1
- inhibition of growth at 10 µM (NCI-H522; NCI-H522, 48 h, read-out: GI): 17.2%
- inhibition of growth at 10 µM [1]: 65%
- inhibition of growth at 10 µM (MCF7 [2]): 57.6%
- inhibition of growth at 10 µM [3]: 45.1%
- inhibition of growth at 10 µM [4]: 18.6%
- GI50 (MCF7 [5]): 6.46 µM
- LC50 (concentration killing 50% of cells) (MCF7 [5]): > 100 µM
- TGI (MCF7 [5]): 50.8 µM
- Ka (Calf thymus DNA [6]): 1.97 ×10⁴ /M
- inhibition of growth at 10 µM (SN12C; read-out: GI): 22.9%
- inhibition of growth at 10 µM (ACHN): 28.4%
- inhibition of growth at 10 µM [7]: 19.4%
- inhibition of growth at 10 µM [8]: 7.42%
- inhibition of growth at 10 µM (SK-MEL-5; SK-MEL-5, 48 h, read-out: GI): 16.6%
- inhibition of growth at 10 µM (Malme-3M; read-out: GI): 27.5%
- CC50 [9]: > 100 µM
- inhibition of growth at 10 µM (KM12; KM12, 48 h, read-out: GI): 62.8%
- GI50 [10]: 8.44 µM
- LC50 (concentration killing 50% of cells) [10]: 61.4 µM
- TGI [10]: 48.6 µM
- CC50 [11]: > 100 µM
- inhibition of growth at 10 µM [12]: 99.2%
- inhibition of growth at 10 µM (T47D; read-out: GI): 69.3%
- GI50 (A549 [13]): 8.37 µM
- LC50 (A549 [13]): 83.8 µM
- TGI (A549 [13]): 38.6 µM
- CC50 [14]: > 100 µM
- LC50 (K562): > 100 µM
- inhibition of growth at 10 µM [15]: 49.7%
- IC50 (Dihydrofolate reductase): 42.4 µM
- inhibition of growth at 10 µM [16]: 16.6%
- inhibition of growth at 10 µM [17]: 24.6%
- inhibition of growth at 10 µM [18]: 7.71%
- inhibition of growth at 10 µM (U-251; U-251, 48 h, read-out: GI): 30.3%
- inhibition of growth at 10 µM (CCRF-CEM; read-out: GI): 96.1%
- inhibition of growth at 10 µM [19]: 7.08%
- inhibition of growth at 10 µM [20]: 55.5%
- growth inhibition (GI) (SR [21]): Active
- inhibition of growth at 10 µM (SK-MEL-2; SK-MEL-2, 48 h, read-out: GI): 16.4%
- LC50 (concentration killing 50% of cells) (SR [22]): > 100 µM
- inhibition of growth at 10 µM (NCI-H322M): 5.98%
- inhibition of growth at 10 µM (A498; A498, 48 h, read-out: GI): 29.7%
- inhibition of growth at 10 µM (M14; M14, 48 h, read-out: GI): 41.7%
- CC50 [23]: > 100 µM
- inhibition of growth at 10 µM (786-0 [24]; 786-0, 48 h, read-out: GI): 8.96%
- Ka (Calf thymus DNA [25]): 3.39 ×10⁴ /M
- GI50 (786-0 [26]): 11.5 µM
- LC50 (concentration killing 50% of cells) (786-0 [26]): > 100000 nM
- TGI (786-0 [26]): 45.4 µM
- inhibition of growth at 10 µM (A549 [27]; A549, 48 h, read-out: GI): 42.6%

SMILES: Cc1nc2cc(Nc3nc(Nc4ccc(F)cc4)nc(N4CCCC4)n3)ccc2n1Cc1ccccc1
- growth inhibition (GI) (NCI-H522): Active
- inhibition of growth at 10 µM (MCF7 [2]): 97%
- GI50 (MCF7 [5]): 1.98 µM
- LC50 (concentration killing 50% of cells) (MCF7 [5]): 6.69 µM
- TGI (MCF7 [5]): 4.88 µM
- Ka (Calf thymus DNA [6]): 5.46 ×10⁴ /M
- growth inhibition (GI) (SN12C): Active
- inhibition of growth at 10 µM (ACHN): 88.5%
- growth inhibition (GI) (SK-MEL-5): Active
- growth inhibition (GI) (Malme-3M): Active
- CC50 [9]: > 100 µM
- growth inhibition (GI) (KM12): Active
- GI50 [10]: 2.08 µM
- LC50 (concentration killing 50% of cells) [10]: 8.64 µM
- TGI [10]: 17.6 µM
- CC50 [11]: 6 µM
- growth inhibition (GI) (T47D): Active
- GI50 (A549 [13]): 1.82 µM
- LC50 (A549 [13]): 14.5 µM
- TGI (A549 [13]): 4.02 µM
- CC50 [14]: > 100 µM
- LC50 (K562): > 100 µM
- IC50 (Dihydrofolate reductase): 0.11 µM
- inhibition of growth at 10 µM [16]: 66.4%
- inhibition of growth at 10 µM [17]: 69.4%
- growth inhibition (GI) (U-251): Active
- growth inhibition (GI) (CCRF-CEM): Active
- growth inhibition (GI) (SR [21]): Active
- growth inhibition (GI) (SK-MEL-2): Active
- LC50 (concentration killing 50% of cells) (SR [22]): > 100 µM
- inhibition of growth at 10 µM (NCI-H322M): 78.6%
- growth inhibition (GI) (A498): Active
- Tm (Calf thymus DNA [28]): 71.5 °C
- growth inhibition (GI) (M14): Active
- CC50 [23]: > 100 µM
- growth inhibition (GI) (786-0 [24]): Active
- Ka (Calf thymus DNA [25]): 5.23 ×10⁴ /M
- GI50 (786-0 [26]): 1.75 µM
- LC50 (concentration killing 50% of cells) (786-0 [26]): 1260 nM
- TGI (786-0 [26]): 3.56 µM
- growth inhibition (GI) (A549 [27]): Active
